The values below come from patent publication US4803223A (priority 1985, dated 1989).

Like-named read-outs stand apart in the source and are kept apart here.

In one test the test system is P388 leukemia. Further details: species or system CDF1-strain mice (male). The note with it: mouse, in vivo.
Test [1] concerns Ehrlich ascites carcinoma. Description: animal or person. The class given is in vivo, mice (CD2F1-strain Swiss, female). The note with it: Mus musculus, ip, 1440 h, read-out: T/C (%).
Test [2] deals with Walker carcinosarcoma 256. Further details: species or system Sprague-Dawley rats (male). The note with it: rat, in vivo.

With `O=C(NCCF)Nc1ccc(N(CCF)CCF)cc1` [Compound 8], the “T/C (%)” value in the test on P388 leukemia (25 mg/kg) stood at 134%.

Regarding `CCN(CCCl)c1ccc(NC(=O)NCCCl)cc1` [Compound 10], in test [1], the response vs control in vivo at 100 mg/kg amounted to 222%.

For `CCCN(CCCl)c1cccc(NC(=O)NCCBr)c1` [Compound 11], in test [1], the response vs control in vivo at 100 mg/kg is 203%.

With `CN(CCBr)c1ccc(NC(=O)NCCBr)cc1` [Compound 12], the “T/C (%)” value in test [2] (50 mg/kg) turned out to be 329%.

With `CC(C)N(CCBr)c1ccc(NC(=O)NCCCl)cc1` [Compound 13], the “T/C (%)” value in the test with P388 leukemia (100 mg/kg) is given as 134%.

Consider `CCCCCCN(CCCl)c1ccc(NC(=O)NCCF)cc1` [Compound 14], for which the response vs control in vivo at 50 mg/kg in test [1] turned out to be 275%.

Turning to `CN(CCI)c1cccc(NC(=O)NCCI)c1` [Compound 15], the “T/C (%)” value in test [2] (150 mg/kg) stood at 220%.

With `C=CCN(CCCl)c1ccc(NC(=O)NCCCl)cc1` [Compound 16], in test [1], the response vs control in vivo at 150 mg/kg is 235%.

On to `C#CN(CCCl)c1ccc(NC(=O)NCCBr)cc1` [Compound 17], for which the response vs control in vivo at 100 mg/kg in test [1] is 294%.

For the compound `O=C(NCCCl)Nc1ccc(N(CCl)CCCl)cc1` [Compound 18], the “T/C (%)” value with P388 leukemia (25 mg/kg) is recorded as 154%.

With `O=C(NCCCl)Nc1ccc(N(CCBr)CCCBr)cc1` [Compound 19], the “T/C (%)” value in test [2] (50 mg/kg) was found to be 329%.

With `COCCN(CCCl)c1ccc(NC(=O)NCCCl)cc1` [Compound 20], in test [1], the response vs control in vivo at 50 mg/kg came to 281%.

As to `CCSCCN(CCCl)c1ccc(NC(=O)NCCBr)cc1` [Compound 21], the “T/C (%)” value in test [2] (100 mg/kg) was determined as 207%.

For `N#CCCN(CCCl)c1ccc(NC(=O)NCCI)cc1` [Compound 22], in test [2] (50 mg/kg), the “T/C (%)” value was found to be 256%.

On to `O=C(NCCF)Nc1ccc(N(CCCl)CCOc2ccccc2)cc1` [Compound 23], for which, in the test with P388 leukemia (50 mg/kg), the “T/C (%)” value stood at 156%.

For the compound `CC=CCN(CCCl)c1cccc(NC(=O)NCCCl)c1` [Compound 24], the response vs control in vivo at 150 mg/kg in test [1] turned out to be 234%.

Consider `C=CCCCN(CCCl)c1ccc(NC(=O)NCCCl)cc1` [Compound 25], for which the response vs control in vivo at 100 mg/kg in test [1] worked out at 178%.

On to `CC(C)C=CCN(CCCl)c1ccc(NC(=O)NCCBr)cc1` [Compound 26], for which the “T/C (%)” value in test [2] (200 mg/kg) was 216%.

`O=C(NCCCl)Nc1cccc(N(CC=CCCl)CCCl)c1` [Compound 27]: the response vs control in vivo at 50 mg/kg in test [1] is 246%.

In the case of `C=CCC(CBr)N(CCBr)c1ccc(NC(=O)NCCBr)cc1` (stereo not shown) [Compound 28], the “T/C (%)” value in test [2] (25 mg/kg) worked out at 182%.

For the compound `C=CC(C#N)N(CCCl)c1ccc(NC(=O)NCCCl)cc1` (stereo not shown) [Compound 29], in the test on P388 leukemia (25 mg/kg), the “T/C (%)” value is given as 187%.

On to `CCCOC=CN(CCI)c1ccccc1NC(=O)NCCBr` [Compound 30], for which, in test [1], the response vs control in vivo at 200 mg/kg turned out to be 205%.

In the case of `CSC=CCN(CCCl)c1ccc(NC(=O)NCCCl)cc1` [Compound 31], the response vs control in vivo at 150 mg/kg in test [1] stood at 184%.

For the compound `O=C(NCCCl)Nc1ccc(N(CCF)CCC=CCOc2ccccc2)cc1` [Compound 32], in the test on P388 leukemia (50 mg/kg), the “T/C (%)” value turned out to be 150%.

For `C#CCN(CCCl)c1cccc(NC(=O)NCCCl)c1` [Compound 33], the “T/C (%)” value in test [2] (200 mg/kg) is given as 169%.

Consider `C#CC(C)N(CCI)c1ccc(NC(=O)NCCF)cc1` (stereo not shown) [Compound 34], for which, in test [1], the response vs control in vivo at 150 mg/kg stood at 199%.

With `CC#CCCN(CCBr)c1ccc(NC(=O)NCCCl)cc1` [Compound 35], the response vs control in vivo at 150 mg/kg in test [1] came to 191%.

For the compound `C#CCCCCN(CCCl)c1ccc(NC(=O)NCCCl)cc1` [Compound 36], in test [1], the response vs control in vivo at 100 mg/kg was determined as 186%.
